# US20230312577A1, “DUAL KINASE-BROMODOMAIN INHIBITORS” (MONASH UNIVERSITY, priority 2020, published 2023)
# pIC50: −log10 of the molar value.
# Experiments:
# PI3K [1] = assay: PI3K enzyme activity assay (luminescence, ATP consumption, Kinase-Glo); format: biochemical
# Procedure: (§1) PI3K activity was determined using a luminescence assay measuring ATP consumption as described previously (J.-A. Pinson, Z. Zheng, M. S. Miller, D. K. Chalmers, I. G. Jennings, P. E. Thompson, L-Aminoacyl-triazine derivatives are isoform-selective PI3Kβ inhibitors that target nonconserved Asp862 of PI3Kb, ACS Med. Chem. Lett. 4 (2013) 206-210). PI3K enzyme activity was determined in 25 μl of 20 mM HEPES pH 7.5, 5 mM MgCl2 with 180 μM phosphatidyl inositol and 10 μMATP. After a 60 min incubation at room temperature the reaction was stopped by the addition of Kinase-Glo (Promega) followed by a further 15 min incubation. Luminescence was then read using a Fluostar plate reader (BMGLabtech).
# (§2) Inhibitors were diluted in 20% (v/v) DMSO at the indicated concentrations in order to generate a concentration versus inhibition of enzyme activity curve which was then analysed using GraphPad Prism version 8.00 for Windows, (GraphPad Software, San Diego California USA) in order to calculate the IC50. Standard deviations for the calculated IC50's are within 25% of the mean.
# [2] = target: GST-BRD4 (binding domain 1, amino acids 44-168) (Homo sapiens, UniProt O60885); assay: Bromodomain binding assay (FRET); conditions: BRD4 binding domain 1, tetracetylated histone 4 peptide
# Procedure: Inhibition of bromodomain binding was measured using a FRET (fluorescence resonance energy transfer) based assay. […] In the presence of the two detection reagents, streptavidin D2 and anti-GST-Eu (CisBio) binding trig-gers a FRET signal detected by fluorescence at 665 nm as measured using a Pherastar reader (BMG Labtech). Data was analysed using GraphPad Prism version 8.00 for Windows, (GraphPad Software, San Diego California USA) in order to calculate the IC50. Standard deviations for the calculated IC50's are within 25% of the mean.
# PI3K [3] = target: T1, PI3K; assay: PI3K enzyme activity assay (luminescence, ATP consumption, Kinase-Glo); format: biochemical; conditions: 10 μM ATP, 180 μM phosphatidyl inositol, 60 min
# T1 construct: PI3K Enzyme Activity Assay IC50 (nM); other: 10 μM ATP, 180 μM phosphatidyl inositol, 60 min
# Procedure: as §1, §2
# OPM2 cells = assay: Cell proliferation assay (ViaLight, cellular ATP); format: cell-based; conditions: Homo sapiens, OPM-2, 120 h, 5 days, 5 μM to 1 nM
# Summary of the method: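 1×10^3 cells per well exposed to compounds at final 5 μM to 1 nM for 5 days. Viability read as cellular ATP by ViaLight luminescence, technical triplicates. GI50 computed from the dose–response.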
# [4] = test system: MLL-AF9 cells (IBET-151-sensitive and IBET-151-resistant); assay: Apoptosis assay in BET-inhibitor-resistant cells (Annexin V/PI); format: cell-based, mouse; conditions: 1 μM, 72 h
# Procedure: Mouse AML cells; MLL-AF9 (IBET-151-sensitive and IBET-151-resistant) (5×10^4) were treated with indicated compounds for 72 h. Apoptotic analysis was performed by flow cytometry using Annexin V/propidium iodide (PI) stains. Data were collected on a BD LSR-Fortessa X20 (BD Biosciences) and analysed using FlowJo Software, version 10.0.7 (Tree Star). IC50 were calculated using the GraphPad Prism Software Version 7.0c. Data are representative of biological triplicates.
SMILES,selectivity (PI3K) (PI3K [1]),pIC50 [2],pIC50 (PI3K [3]),GI50 (OPM2 cells) [µM],apoptosis in I-BET151-resistant MLL-AF9 cells [4]
"CC(=O)N1c2ccc(-c3ccc(CNC(=O)c4cn5cc(-c6cnc(N)nc6)nc(N6CCOCC6)c5n4)cc3)cc2CC[C@H]1C [Cpd 034, (R)-N-(4-(1-acetyl-2-methyl-1,2,3,4-tetrahydroquinolin-6-yl)benzyl)-6-(2-aminopyrimidin-5-yl)-8-morpholinoimidazo[1,2-a]pyrazine-2-carboxamide]",selective PI3K inhibitor,–,–,–,–
"CC(=O)N1c2ccc(-c3ccc(C(=O)N4CCN(C(=O)c5cn6cc(-c7cnc(N)nc7)nc(N7CCOCC7)c6n5)CC4)cc3)cc2CCC1C (centres unmarked) [Cpd 001, 1-(6-(4-(4-(6-(2-Aminopyrimidin-5-yl)-8-morpholinoimidazo[1,2-a]pyrazine-2-carbonyl)piperazine-1-carbonyl)phenyl)-2-methyl-3,4-dihydroquinolin-1(2H)-yl)ethan-1-one]",–,< 6.30,< 6.30,0.1 to 0.5,–
"CC(=O)N1c2ccc(-c3ccc(CNC(=O)c4cn5cc(-c6cnc(N)nc6)nc(N6CCOCC6)c5n4)cc3)cc2CCC1C (centres unmarked) [Cpd 002, N-(4-(1-Acetyl-2-methyl-1,2,3,4-tetrahydroquinolin-6-yl)benzyl)-6-(2-aminopyrimidin-5-yl)-8-morpholinoimidazo[1,2-a]pyrazine-2-carboxamide]",–,6.30 to 7.00,≥ 7.00,≤ 0.1,–
"COc1cc2c(cc1-c1c(C)noc1C)ncc1[nH]c(=O)n([C@H](C)c3ccccn3)c12 [I-BET151, reference compound]",–,–,–,–,resistance to I-BET151 drug in the resistant cells was confirmed
